From ChEMBL document CHEMBL5120840, “Axial chirality and affinity at the GABAA receptor of triazolobenzodiazepines” (Bioorg Med Chem, 2022)
“And” between values parts separate entries of the source, which are not always exact repeats. Equal values may be shown once.

Tests used:
[1] = target: GABA-A receptor; anion channel; test: Displacement of [3H]flunitrazepam from GABAA central benzodiazepine receptor in Wistar rat brain membrane without cerebellum measured after 60 mins by scintillation counting analysis; type: cell membranes
[2] = target: GABA-A receptor; anion channel (Rattus norvegicus) (UniProt O09028+P15431+P18506+P18508+P19969+P20236+P23574+P23576+P28471+P28473+P30191+P62813+P63079+P63138+Q91ZM7+Q9ES14); test: Displacement of [3H]flunitrazepam from GABAA central benzodiazepine receptor in Wistar rat brain membrane without cerebellum measured after 60 mins by scintillation counting analysis relative to control; type: cell membranes

| Compound | IC50 [1] | inhibition [2] [%] |
| --- | --- | --- |
| Clc1ccc2c(c1)C(c1ccccc1Cl)=NCc1nncn1-2 | 1.94 nM | – |
| Cc1cc(Cl)cc2c1-n1c(C)nnc1CN=C2c1ccccc1 | 210 nM and 430 nM | < 50 |
| Cc1cc(Cl)cc2c1-n1c(C)nnc1CN=C2c1ccccc1Cl | 10.9 nM and 34 nM | < 50 |
| Cc1cc(Cl)cc2c1-n1cnnc1CN=C2c1ccccc1Cl | 23 nM | – |
